Laboratory results taken from article PMC4385514 (Chemical biology & drug design, 2014).
Structures can show the parent of a compound that is named as a salt.

Key:
[1] = target: T1, TbrPDEB1 (Trypanosoma brucei, UniProt Q8WQX9); assay: TbrPDEB1 biochemical assay; settings: for inhibition at 10 µM: read-out: TbrPDEB1 (% inh); for fold improvement of TbrPDEB1 activity over 3: relative to compound 3
T1 sequence (Q8WQX9 1-930): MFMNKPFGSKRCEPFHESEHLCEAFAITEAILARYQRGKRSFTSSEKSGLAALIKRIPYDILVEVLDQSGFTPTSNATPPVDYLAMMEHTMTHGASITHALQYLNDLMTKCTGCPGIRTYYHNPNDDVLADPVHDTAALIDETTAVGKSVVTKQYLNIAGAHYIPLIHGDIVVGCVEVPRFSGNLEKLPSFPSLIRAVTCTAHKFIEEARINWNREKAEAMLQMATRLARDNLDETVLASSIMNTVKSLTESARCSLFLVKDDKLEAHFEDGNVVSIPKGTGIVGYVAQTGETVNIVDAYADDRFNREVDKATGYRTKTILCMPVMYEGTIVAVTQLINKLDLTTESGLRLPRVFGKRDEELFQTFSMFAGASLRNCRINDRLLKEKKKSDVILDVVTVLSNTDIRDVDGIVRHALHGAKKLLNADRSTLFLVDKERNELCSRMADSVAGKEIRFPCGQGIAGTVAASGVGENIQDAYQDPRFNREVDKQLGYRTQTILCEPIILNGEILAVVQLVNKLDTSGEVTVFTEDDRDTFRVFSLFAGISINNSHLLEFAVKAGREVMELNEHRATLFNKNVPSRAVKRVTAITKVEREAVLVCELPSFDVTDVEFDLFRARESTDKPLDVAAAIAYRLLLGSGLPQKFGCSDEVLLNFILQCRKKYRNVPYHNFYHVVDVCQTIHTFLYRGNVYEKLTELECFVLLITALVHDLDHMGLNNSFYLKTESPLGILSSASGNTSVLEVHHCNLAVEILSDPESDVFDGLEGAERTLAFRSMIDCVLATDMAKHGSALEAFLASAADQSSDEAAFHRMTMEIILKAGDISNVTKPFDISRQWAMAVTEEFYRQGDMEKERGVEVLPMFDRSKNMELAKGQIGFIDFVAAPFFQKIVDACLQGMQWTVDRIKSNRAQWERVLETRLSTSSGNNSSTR

[2] = tested on: Bloodstream forms of Trypanosoma brucei brucei strain 427; assay: Trypanosome cell culture assay; assay type: cell-based; settings: 48 h, read-out: T brucei cell (EC50, μM)

Row | inhibition at 10 µM [1] [%] | fold improvement of TbrPDEB1 activity over 3 [1] | Structure (SMILES) | EC50 [2] [µM]
1 | 64 ± 7 |  | COc1cccc(Nc2c(C(N)=O)cnc3c(C)cc(S(=O)(=O)c4cccc(C(N)=O)c4)cc23)c1 [Compound 12a, 6-(3-carbamoylphenylsulfonyl)-4-(3-methoxyphenylamino)-8-methylquinoline-3-carboxamide] | 
2 | 21 ± 16 |  | COc1cccc(Nc2c(C(N)=O)cnc3c(C)cc(S(=O)(=O)c4ccccc4)cc23)c1 [Compound 10b, 4-((3-methoxyphenyl)amino)-8-methyl-6-(phenylsulfonyl)quinoline-3-carboxamide] | 
3 | 34 ± 11 |  | CNC(=O)c1cnc2c(C)cc(-c3ccc4cnn(C)c4c3)cc2c1Nc1cccc(OC)c1 [Compound 27a, 4-((3-methoxyphenyl)amino)-N,8-dimethyl-6-(1-methyl-1H-indazol-6-yl)quinoline-3-carboxamide] | 
4 | 70 ± 7.9 | approximately 8 fold | COC(=O)c1cccc(S(=O)(=O)c2cc(C)c3ncc(C(N)=O)c(Nc4cccc(OC)c4)c3c2)c1 [Compound 10a, methyl 3-(3-carbamoyl-4-(3-methoxyphenylamino)-8-methylquinolin-6-ylsulfonyl)benzoate] | 7.3 ± 0.97
5 | 22 ± 3.8 |  | COc1cccc(Nc2c(C(=O)N(C)C)cnc3c(C)cc(-c4ccc5cnn(C)c5c4)cc23)c1 [Compound 27b, 4-((3-methoxyphenyl)amino)-N,N,8-trimethyl-6-(1-methyl-1H-indazol-6-yl)quinoline-3-carboxamide, formic acid salt] | 
6 | 10 ± 5.3 |  | COc1cccc(Nc2c(C(N)=O)cnc3c(C)cc(-c4cc(C(=O)O)cc(C(=O)O)c4)cc23)c1 [Compound 18a, 5-(3-carbamoyl-4-((3-methoxyphenyl)amino)-8-methylquinolin-6-yl)isophthalic acid] | 
7 | 31 ± 14 |  | COC(=O)c1cc(C(=O)O)cc(-c2cc(C)c3ncc(C(N)=O)c(Nc4cccc(OC)c4)c3c2)c1 [Compound 18b, 3-(3-carbamoyl-4-((3-methoxyphenyl)amino)-8-methylquinolin-6-yl)-5-(methoxycarbonyl)benzoic acid] | 
8 | 0 |  | COC(=O)c1cccc(-c2cc(C)c3ncc(C(N)=O)cc3c2)c1 [Compound 21b, methyl 3-(3-carbamoyl-8-methylquinolin-6-yl)benzoate] | 
9 | 66 ± 6.1 |  | CNC(=O)c1cccc(S(=O)(=O)c2cc(C)c3ncc(C(N)=O)c(Nc4cccc(OC)c4)c3c2)c1 [Compound 12b, 4-(3-methoxyphenylamino)-8-methyl-6-(3-(methylcarbamoyl)phenylsulfonyl)quinoline-3-carboxamide] | 
10 | 41 ± 5.8 |  | COC(=O)c1cccc(-c2cc(C)c3ncc(C(N)=O)c(-c4cccc(C(=O)OC)c4)c3c2)c1 [Compound 21a, dimethyl 3,3′-(3-carbamoyl-8-methylquinoline-4,6-diyl)dibenzoate] | 

Second part, the molecule before the results:

Row | Structure (SMILES) | inhibition at 10 µM [1] [%] | fold improvement of TbrPDEB1 activity over 3 [1] | EC50 [2] [µM]
11 | COc1cccc(Nc2c(C(N)=O)cnc3c(C)cc(S(=O)(=O)c4cccc(C(=O)O)c4)cc23)c1 [Compound 11, 3-(3-carbamoyl-4-(3-methoxyphenylamino)-8-methylquinolin-6-ylsulfonyl)benzoic acid] | 82 ± 10 | approximately 8 fold | 
12 | COC(=O)c1cccc(Nc2cc(C)c3ncc(C(N)=O)c(Nc4cccc(OC)c4)c3c2)c1 [Compound 13, methyl 3-(3-carbamoyl-4-(3-methoxyphenylamino)-8-methylquinolin-6-ylamino)benzoate] | 84 ± 7.7 |  | 
13 | Cc1cc(-c2cccc(-c3ncco3)c2)cc2c(NC3CCCC3)c(C(N)=O)cnc12 [Compound 28, 4-(cyclopentylamino)-8-methyl-6-(3-(oxazol-2-yl)phenyl)quinoline-3-carboxamide] | 76 ± 2.2 |  | 
14 | COc1cccc(Nc2c(C(N)=O)cnc3c(C)cc(Sc4ccccc4)cc23)c1 [Compound 9b, 4-((3-methoxyphenyl)amino)-8-methyl-6-(phenylthio)quinoline-3-carboxamide] | 10 |  | 
15 | COC(=O)c1cccc(Sc2cc(C)c3ncc(C(N)=O)c(Nc4cccc(OC)c4)c3c2)c1 [Compound 9a, methyl 3-(3-carbamoyl-4-(3-methoxyphenylamino)-8-methylquinolin-6-ylthio)benzoate] | 12 ± 6.1 |  | 
16 | COc1cccc(Nc2c(C(N)=O)cnc3c(C)cc(S(=O)(=O)c4cccc(C(=O)N(C)C)c4)cc23)c1 [Compound 3, GSK-256066, reference compound] | 51 ± 3.9 |  | 7.8 ± 2.5
